Source: US8906897B2, “Antimicrobial agents based on hemin derivatives” (Obschestvo S Ogranichennoi Otvetstvennostiyu …, priority 2009, dated 2014)
Non-standard residues stand in square brackets, D forms with d. Residues, ends and D or L forms follow the SMILES beside them. Orn = NCCC[C@H](N)C(=O)O

Key:
[1] = system: Cryptococcus neoformans No. 3465; assay: Antifungal activity, culture growth with pH indicator; type: cell-based; parameters: key: (−) No growth; the indicator is blue; (±) Weak growth; the indicator is yellow, but the precipitate of grown cells looks as a diffuse spot; (+) Strong growth; the indicator is yellow, and the cell precipitate looks as a compact spot
Experimental: (§1) The subjects of action were Cryptococcus neoformans No. 3465 museum strain cells and Candida albicans No. 927 museum strain cells grown for one day on a glucose-peptone-yeast medium at 32° C. The reference compounds were the following antimycotics: pimafucin, amphotericin, and fluconazole.
(§2) Experiments were carried out on round-bottomed 96-well plates (Lenmedpolimer) in two replicas. To the first column (0), added was 10 μL of the stock solution of a water-soluble agent with concentrations of 10^−2 to 10^−3 mol/L; to the second column, added was also the same 10 μL plus 10 μL of the solvent corresponding to the given compound, suspended, 10 μL was transferred to the next well, and so on to the 8th well of the row. Stock solutions of water-insoluble compounds of general formula (I) (compounds V, VIII, XII, XIII, XIV, and hemin) were prepared in DMSO and were diluted with DMSO and the medium. DMSO concentrations in the reaction mixture in a well were ≦5%.
(§3) Then, to every well added was 190 μL of a Cr. neoformans cell culture suspension in a synthetic nutritional medium (so that the final cell concentration was approximately 10^3 CFU/mL), this medium containing Bromocresol Blue as a pH-indicator (pH: 5.5; indicator color: blue). As pH reduced to 4.5, the indicator in the culture changed its color to yellow, thereby indicating fungal cell growth. The synthetic medium comprised the following components: salts, amino acids, microelements, vitamins, an antibiotic, and glucose (30 components altogether) [Yarrow, D., “Methods for the Isolation, Maintenance and Identification of Yeasts,” in: The Yeasts. A Taxonomic Study, Ed. by Kurtsman, C. P, and Fell, M., Elsevier, 1998, pp. 77-100]. After being inoculated with a Cr. neoformans cell suspension, the plate was incubated at 32° C. for 1 h with stirring, then transferred to a stationary thermostat and incubated for two and five days at 27° C. After being inoculated with a C. albicans cell suspension, the plates were incubated for 1 h at 32° C. with stirring, then transferred to a stationary thermostat and incubated for one and four days at 27° C.

human leukocytes = assay: Cytotoxic activity against human leukocytes; settings: for toxic effect on human blood leukocytes (in words): concentrations of up to 1 mM, 3 h
Experimental: Total leukocytes were isolated from human blood by unforced sedimentation using freshly collected venous blood from a healthy donor.
Blood (10 mL) added with 10 units/mL heparin was exposed for 2.5 h in the dark at a temperature of 15 to 18° C. A light-colored liquid supernatant (4 mL) was collected over the layer of sedimenting erythrocytes, washed three times with balanced Hanks's salt solution, and resuspended in the RPMI-1640 medium (added with 8% fetal bovine serum, 2 mM L-glutamine, and 10 mM HEPES; hereinafter, the complete medium).
The concentrations of leukocytes and erythrocytes in the suspension were determined by counts in Goryachev's chamber, after which the suspension was adjusted to a leukocyte concentration of (1.0±0.1)×10^6 cells/mL with the complete medium.
To determine the cytotoxicity of the tested compounds for human leukocytes, the cell suspension was transferred to wells of sterile 96-well plates, tested compounds were added with serial twofold dilutions (the range of tested concentrations was from 3.2 to 100 μM for GrD and gramicidin S; from 8 to 500 μM for compound XIII; and from 8 to 1000 μM for compounds V, VI, VII, VIII, IX, X, XI, XIV, XV, XIX, and Hem), and the mixture was carefully stirred. The experiment was performed in two replicas.
As controls served cells added with an equivalent amount of the solvent in which tested compounds were prepared, namely: water for compounds VII and X; an aqueous solution of DMSO for compounds V, VI, VIII, and IX; and DMSO for GrD, gramicidin S, Hem, XI, XIII, XIV, XV, and XIX. An additional control was an additive-free leukocyte suspension.
Cells were incubated with tested compounds for 3 h (37° C., 5% CO2, 100% humidity). Leukocyte death values were quantified using fluorescence microscopy. Staining with propidium iodide (it permeates only into dead cells nuclei) and Hoechst 33342 (it stains all nuclei) was used to recognize dead and living cells. Cells were incubated for 15 min in plates with propidium iodide and Hoechst 33342 (37° C., 5% CO2), and then the plates were placed under a microscope for analysis.
The dead cell fraction was derived from the fluorescence images of cells obtained in the blue (Hoechst 33342) and red (propidium iodide) spectral ranges using an Axio Observer (Zeiss, Germany) fluorescence microscope equipped with a 10× objective lens (Plan-Neofluar 10×/0.3). The following sets of fluorescence filters were used. For propidium iodide: a 530/585-nm bandpass excitation filter, a 600-nm cut-off dichroic minor, and a 615-nm longpass barrier filter for analysis. For Hoechst 33342: a 359/372-nm bandpass excitation filter, a 395-nm cut-off dichroic mirror, and a 397-nm longpass barrier filter for analysis.
A digital camera recorded three types of cell images: (a) an image in the transmitted white light; (b) a blue fluorescence image obtained with UV excitation, and (c) a red fluorescence image obtained with green light excitation. At least four fields of view were photographed per well in various regions of a well.

Candida albicans No. 927 = assay: Antifungal activity, culture growth with pH indicator; type: cell-based; parameters: key to Test culture growth at various dilutions of the agent: (−) No growth; the indicator is blue; (±) Weak growth; the indicator is yellow, but the precipitate of grown cells looks as a diffuse spot; (+) Strong growth; the indicator is yellow, and the cell precipitate looks as a compact spot
Experimental: as §1, §2, §3

[2] = dilution : 16 of 5.00 × 10^−4 M
[3] = dilution : 32 of 5.00 × 10^−4 M
[4] = dilution : 64 of 5.00 × 10^−4 M
[5] = dilution : 128 of 5.00 × 10^−4 M

Row | Molecule | Test culture growth at various dilutions of the agent on day 2 ([1]; dilution 0: 5.00 × 10^−4 M) | Test culture growth at various dilutions of the agent on day 2 ([1]; dilution : 2 of 5.00 × 10^−4 M) | Test culture growth at various dilutions of the agent on day 2 ([1]; dilution : 4 of 5.00 × 10^−4 M) | Test culture growth at various dilutions of the agent on day 2 ([1]; dilution : 8 of 5.00 × 10^−4 M) | Test culture growth at various dilutions of the agent on day 2 [1, 2] | Test culture growth at various dilutions of the agent on day 2 [1, 3] | Test culture growth at various dilutions of the agent on day 2 [1, 4] | Test culture growth at various dilutions of the agent on day 2 [1, 5] | toxic effect on human blood leukocytes (in words) (human leukocytes) | Test culture growth at various dilutions of the agent (Candida albicans No. 927; dilution 0: 1 × 10^−4 M) | Test culture growth at various dilutions of the agent (Candida albicans No. 927; dilution : 2 of 1 × 10^−4 M) | Test culture growth at various dilutions of the agent (Candida albicans No. 927; dilution : 4 of 1 × 10^−4 M) | Test culture growth at various dilutions of the agent (Candida albicans No. 927; dilution : 8 of 1 × 10^−4 M) | Test culture growth at various dilutions of the agent (Candida albicans No. 927; dilution : 16 of 1 × 10^−4 M) | Test culture growth at various dilutions of the agent (Candida albicans No. 927; dilution : 32 of 1 × 10^−4 M) | Test culture growth at various dilutions of the agent (Candida albicans No. 927; dilution : 64 of 1 × 10^−4 M) | other results
1 | OC(Cn1cncn1)(Cn1cncn1)c1ccc(F)cc1F [Fluconazole, reference compound] | ±** | ± | ± | + | + | + | + | + |  |  |  |  |  |  |  |  | 
2 | C=CC1=C(C)c2cc3[n-]c(cc4nc(cc5[n-]c(cc1n2)c(C)c5CCC(=O)NCCC(=O)N[C@@H](Cc1c[nH]cn1)C(=O)O)C(CCC(=O)NCCC(=O)N[C@@H](Cc1c[nH]cn1)C(=O)O)=C4C)c(C)c3C=C.[Cl-].[Fe+3] [Compound X] |  |  |  |  |  |  |  |  | did not cause the death |  |  |  |  |  |  |  | Death of leukocytes in the presence of 1 mM of compound (human leukocytes; 1 mM, 3 h incubation): 4.9 ± 0.3%
3 | C[C@@H]1[C@H](O)[C@@H](C)/C=C/C=C/C=C/C=C/C=C/C=C/C=C/[C@H](O[C@@H]2O[C@H](C)[C@@H](O)[C@H](N)[C@@H]2O)C[C@@H]2O[C@](O)(C[C@@H](O)C[C@@H](O)[C@H](O)CC[C@@H](O)C[C@@H](O)CC(=O)O[C@H]1C)C[C@H](O)[C@H]2C(=O)O [Amphotericin B, reference compound] | −** | − | − | − | − | − | − | − |  |  |  |  |  |  |  |  | 
4 | N^α-[6(7)-(Protohemin IX)-yl]-ArgArgTrpTrpArgPhe-OH ({protohemin IX}-RRWWRF-OH) [Compound XX] |  |  |  |  |  |  |  |  |  | ± | ± | ± | ± | ± | ± | ± | 
5 | CC(C)C[C@@H]1NC(=O)[C@H](CCCN)NC(=O)[C@H](C(C)C)NC(=O)[C@@H]2CCCN2C(=O)[C@@H](Cc2ccccc2)NC(=O)[C@H](CC(C)C)NC(=O)[C@H](CCCN)NC(=O)[C@H](C(C)C)NC(=O)[C@@H]2CCCN2C(=O)[C@@H](Cc2ccccc2)NC1=O [Gramicidin S, reference compound] (cyclo(L[dF]PV[Orn]L[dF]PV[Orn])) |  |  |  |  |  |  |  |  | fully due to the toxic effect of the solvent |  |  |  |  |  |  |  | 
6 | C[C@@H]1C/C=C/C=C/C=C/C=C/[C@H](O[C@@H]2O[C@H](C)[C@@H](O)[C@H](N)[C@@H]2O)C[C@@H]2O[C@](O)(C[C@@H](O)C[C@H]3O[C@@H]3/C=C/C(=O)O1)C[C@H](O)[C@H]2C(=O)O [Pimafucin, reference compound] |  |  |  |  |  |  |  |  |  | − | − | − | − | − | + | + | 
